For orientation: EC50 means the concentration at which the effect is half-maximal. For orientation: melting point means the temperature of the solid-liquid transition.

SMILES strings stand for the structures.

The target of series [1] is T1, human β3 adrenergic receptor (Homo sapiens, UniProt P13945).
T1 construct: Full length β3 AR clones (402 amino acids) containing the last 6 amino acids of hβ3— AR are prepared; expressed in transfected cells; host or cells: CHO cells
In words: cAMP accumulation (SPA) in CHO cells transfected with human β3 adrenergic receptor. Conditions: for EC50: CHO cells expressing human β3-AR, cAMP, 30 min incubation, 10^−9 M to 10^−5 M, read-out: beta-3 EC50; for beta-3 (IA) maximal response relative to isoproterenol: IA = % activity compound / % activity isoproterenol at 10^−5 M, CHO human β3 cells. It is filed as cell-based. The gist of the method:
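CHO cells expressing human β3-AR (70–110 fmol/mg protein) treated with compound at 10^−9 to 10^−5 M in DMEM with 250 μM IBMX and 1 mM ascorbic acid, 30 min, 37 °C. cAMP measured by SPA; EC50 derived, and intrinsic activity expressed relative to the maximal response of 10^−5 M isoproterenol.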
On the technique in general: Cyclic AMP is a second messenger, typically raised through Gs and lowered through Gi signalling.

The target in series [2] is T2, human β2-adrenergic receptor (Homo sapiens, UniProt P07550).
T2 construct: expressed in transfected cells; host or cells: CHO cells
In words: cAMP accumulation (SPA) in CHO cells transfected with human β2 adrenergic receptor. In kind it is cell-based. Conditions: for EC50: CHO cells transfected with human β2-AR, cAMP, 15 min incubation, 10^−8 to 10^−4 M, read-out: beta-2 EC50; for beta-2 (IA) maximal response relative to isoproterenol: IA = % activity compound / % activity isoproterenol at 10^−5 M, CHO human β2 cells. The method in brief:
(§1)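 CHO cell clones expressing 70–110 fmol/mg protein of receptor were pre-incubated 30 min at 37 °C, then treated 15 min at 37 °C with compound (10^−8 to 10^−4 M) in DMEM with 250 μM IBMX and 1 mM ascorbic acid. cAMP was read by SPA after acid stop. EC50 and IA were expressed relative to maximal 10^−5 M isoproterenol response.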

In series [3] the target is T3, human β1-adrenergic receptor (Homo sapiens, UniProt P08588).
T3 construct: expressed in transfected cells; host or cells: CHO cells
The experiment in a line: cAMP accumulation (SPA) in CHO cells transfected with human β1 adrenergic receptor. In kind it is cell-based. Conditions: for EC50: CHO cells transfected with human β1-AR, cAMP, 15 min incubation, 10^−8 to 10^−4 M, read-out: beta-1 EC50; for beta-1 (IA) maximal response relative to isoproterenol: IA = % activity compound / % activity isoproterenol at 10^−5 M, CHO human β1 cells. The gist of the method:
as §1

T2 sequence (P07550 whole entry): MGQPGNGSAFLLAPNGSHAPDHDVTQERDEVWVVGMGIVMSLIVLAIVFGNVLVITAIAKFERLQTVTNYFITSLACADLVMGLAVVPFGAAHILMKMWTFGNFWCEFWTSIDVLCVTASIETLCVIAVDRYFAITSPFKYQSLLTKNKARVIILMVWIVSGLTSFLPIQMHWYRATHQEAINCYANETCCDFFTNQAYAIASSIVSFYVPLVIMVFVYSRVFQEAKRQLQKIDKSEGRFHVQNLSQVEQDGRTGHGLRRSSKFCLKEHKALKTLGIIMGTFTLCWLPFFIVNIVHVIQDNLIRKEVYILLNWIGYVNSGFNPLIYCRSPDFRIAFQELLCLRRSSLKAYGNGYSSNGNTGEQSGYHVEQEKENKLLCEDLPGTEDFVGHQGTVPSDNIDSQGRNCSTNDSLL
T3 sequence (P08588 whole entry): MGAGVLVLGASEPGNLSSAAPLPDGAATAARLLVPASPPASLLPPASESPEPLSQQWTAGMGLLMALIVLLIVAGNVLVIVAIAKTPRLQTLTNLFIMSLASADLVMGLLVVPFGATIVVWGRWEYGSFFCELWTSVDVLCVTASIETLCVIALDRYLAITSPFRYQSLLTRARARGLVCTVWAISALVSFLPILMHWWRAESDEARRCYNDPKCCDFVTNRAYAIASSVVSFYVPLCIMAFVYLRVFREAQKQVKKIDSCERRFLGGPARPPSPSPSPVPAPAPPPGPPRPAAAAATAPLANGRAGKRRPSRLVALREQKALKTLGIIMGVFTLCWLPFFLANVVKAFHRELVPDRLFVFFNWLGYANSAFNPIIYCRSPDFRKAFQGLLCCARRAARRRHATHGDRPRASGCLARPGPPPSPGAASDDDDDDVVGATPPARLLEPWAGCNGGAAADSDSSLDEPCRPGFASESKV
T1 sequence (P13945 whole entry): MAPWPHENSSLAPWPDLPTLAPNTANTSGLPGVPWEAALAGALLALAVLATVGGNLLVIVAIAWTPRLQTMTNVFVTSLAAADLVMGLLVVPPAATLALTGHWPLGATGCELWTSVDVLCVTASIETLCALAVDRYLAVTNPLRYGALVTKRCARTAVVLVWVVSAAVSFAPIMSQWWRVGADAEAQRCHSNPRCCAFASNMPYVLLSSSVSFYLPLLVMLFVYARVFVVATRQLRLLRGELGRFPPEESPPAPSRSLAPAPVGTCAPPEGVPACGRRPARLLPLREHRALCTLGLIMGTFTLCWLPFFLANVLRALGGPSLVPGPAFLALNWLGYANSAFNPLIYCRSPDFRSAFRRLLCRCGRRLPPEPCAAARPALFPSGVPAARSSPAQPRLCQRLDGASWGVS

Compound `COc1ccc(NS(=O)(=O)c2ccc(N3CCC(NCC(O)c4ccc(O)c(NS(C)(=O)=O)c4)CC3)cc2)cc1OC` (centres unmarked) [Example 8, N-(3,4-Dimethoxy-phenyl)-4-{4-[2-hydroxy-2-(4-hydroxy-3-methanesulfonylamino-phenyl)-ethylamino]-piperidin-1-yl}-benzenesulfonamide] displayed a melting point of 205 to 218 °C. In series [1], the EC50 was 16 nM and the “beta-3 (IA) maximal response relative to isoproterenol” value was “(0.91)”. In series [2], the EC50 was 610 nM and the “beta-2 (IA) maximal response relative to isoproterenol” value was “(0.28)”. For the same compound, in series [3], the concentration giving a half-maximal response (EC50) is 3600 nM and the “beta-1 (IA) maximal response relative to isoproterenol” value is listed as “(0.41)”.

With `CCCCNS(=O)(=O)c1ccc(N2CCC(NC[C@H](O)c3ccc(O)c(NS(C)(=O)=O)c3)CC2)cc1` [Example 14, N-Butyl-4-{4-[(2R)-2-hydroxy-2-(4-hydroxy-3-methanesulfonylamino-phenyl)-ethylamino]-piperidin-1-yl}-benzenesulfonamide], the melting point was in the range of 71 to 75 °C. In series [1], the EC50 came to 1 nM and the “beta-3 (IA) maximal response relative to isoproterenol” value is “(1.3)”. Besides, in series [2], the EC50 stood at 170 nM and the “beta-2 (IA) maximal response relative to isoproterenol” value is listed as “(0.53)”. Further, in series [3], the EC50 is 640 nM and the “beta-1 (IA) maximal response relative to isoproterenol” value is listed as “(1)”.

Compound `CC(C)OC(=O)C1CCCN1S(=O)(=O)c1ccc(N2CCC(NCC(O)c3ccc(O)c(NS(C)(=O)=O)c3)CC2)cc1` (centres unmarked) [Example 15, 1-(4-{4-[2-Hydroxy-2-(4-hydroxy-3-methanesulfonylamino-phenyl)-ethylamino]-piperidin-1-yl}-benzenesulfonyl)-pyrrolidine-2-carboxylic Acid Isopropyl Ester] yielded a melting point of 52 to 58 °C. Moreover, in series [1], the EC50 came to 1 nM and the “beta-3 (IA) maximal response relative to isoproterenol” value is listed as “(1)”. Also, in series [2], the EC50 was found to be 160 nM and the “beta-2 (IA) maximal response relative to isoproterenol” value was “(0.37)”. Further, in series [3], the concentration for a half-maximal effect (EC50) amounted to 13000 nM and the “beta-1 (IA) maximal response relative to isoproterenol” value is on record as “(0.23)”.

In the case of `CCCCN(CC(=O)OCc1ccccc1)S(=O)(=O)c1ccc(N2CCC(NC[C@H](O)c3ccc(O)c(NS(C)(=O)=O)c3)CC2)cc1` [Example 19, [Butyl-(4-{4-[(2R)-2-hydroxy-2-(4-hydroxy-3-methanesulfonylamino-phenyl)-ethylamino]-piperidin-1-yl}-benzenesulfonyl)-amino]-acetic Acid Benzyl Ester], the melting point lay within 59 to 64 °C. In series [1], the EC50 stood at 7 nM and the “beta-3 (IA) maximal response relative to isoproterenol” value was “(1)”. Further, in series [2], the “beta-2 (IA) maximal response relative to isoproterenol” value is “(0.2)”. In series [3], the EC50 was determined as 790 nM and the “beta-1 (IA) maximal response relative to isoproterenol” value was “(0.54)”.

Turning to `CS(=O)(=O)Nc1cc([C@@H](O)CNC2CCN(c3ccc(S(=O)(=O)N4CCC[C@@H]4C(=O)OCc4ccccc4)cc3)CC2)ccc1O` [Example 21, (2R)-1-(4-{4-[(2R)-2-Hydroxy-2-(4-hydroxy-3-methanesulfonylamino-phenyl)-ethylamino]-piperidin-1-yl}-benzenesulfonyl)-pyrrolidine-2-carboxylic Acid Benzyl Ester], the melting point is 62 to 69 °C. For the same compound, in series [1], the EC50 was 1 nM and the “beta-3 (IA) maximal response relative to isoproterenol” value is reported as “(1)”. In series [2], the EC50 was 640 nM and the “beta-2 (IA) maximal response relative to isoproterenol” value is given as “(0.82)”. Also, in series [3], the EC50 stood at 60 nM and the “beta-1 (IA) maximal response relative to isoproterenol” value is “(0.88)”.

As to `CS(=O)(=O)Nc1cc([C@@H](O)CNC2CCN(c3ccc(S(=O)(=O)N4CCC[C@H]4C(=O)OCc4ccccc4)cc3)CC2)ccc1O` [Example 22, (2S)-1-(4-{4-[(2R)-2-Hydroxy-2-(4-hydroxy-3-methanesulfonylamino-phenyl)-ethylamino]-piperidin-1-yl}-benzenesulfonyl)-pyrrolidine-2-carboxylic Acid Benzyl Ester], the melting point lay in the range of 65 to 71 °C. In series [1], the EC50 amounted to 2 nM and the “beta-3 (IA) maximal response relative to isoproterenol” value is listed as “(1)”. For the same compound, in series [2], the EC50 came out at 40 nM and the “beta-2 (IA) maximal response relative to isoproterenol” value is “(0.63)”. For the same compound, in series [3], the EC50 worked out at 200 nM and the “beta-1 (IA) maximal response relative to isoproterenol” value is “(1.08)”.

As for `CCCCN(CC(=O)OCC)S(=O)(=O)c1ccc(N2CCC(NC[C@H](O)c3ccc(O)c(NS(C)(=O)=O)c3)CC2)cc1` [Example 23, [Butyl-(4-{4-[(2R)-2-hydroxy-2-(4-hydroxy-3-methanesulfonylamino-phenyl)-ethylamino]-piperidin-1-yl}-benzenesulfonyl)-amino]-acetic Acid Ethyl Ester], the melting point was in the range of 94 to 95 °C. Besides, in series [1], the EC50 worked out at 16 nM and the “beta-3 (IA) maximal response relative to isoproterenol” value is listed as “(1)”. Further, in series [2], the EC50 amounted to 1670 nM and the “beta-2 (IA) maximal response relative to isoproterenol” value is given as “(0.89)”. In series [3], the EC50 is 1320 nM and the “beta-1 (IA) maximal response relative to isoproterenol” value is recorded as “(0.68)”.

As for `CS(=O)(=O)Nc1cc([C@@H](O)CNC2CCN(c3ccc(S(=O)(=O)NCCO)cc3)CC2)ccc1O` [Example 24, N-(2-Hydroxyethyl)-4-{4-[(2R)-2-hydroxy-2-(4-hydroxy-3-methanesulfonylamino-phenyl)-ethylamino]-piperidin-1-yl)-benzenesulfonamide], the melting point is 78 to 81 °C. Moreover, in series [1], the EC50 came to 33 nM and the “beta-3 (IA) maximal response relative to isoproterenol” value is given as “(0.88)”. For the same compound, in series [2], the EC50 turned out to be 1000 nM and the “beta-2 (IA) maximal response relative to isoproterenol” value is “(0.68)”. In series [3], the EC50 turned out to be 1000 nM and the “beta-1 (IA) maximal response relative to isoproterenol” value is “(0.35)”.

`Cc1ccc(S(=O)(=O)c2ccc(N3CCC(NCC(O)c4ccc(O)c(NS(C)(=O)=O)c4)CC3)cc2)cc1` (centres unmarked) [Example 45, N-[2-Hydroxy-5-(1-hydroxy-2-{1-[4-(toluene-4-sulfonyl)-phenyl]-piperidin-4-ylamino}-ethyl)-phenyl]-methanesulfonamide] showed a melting point of 115 to 118 °C. In series [1], the EC50 is 1 nM and the “beta-3 (IA) maximal response relative to isoproterenol” value was “(1)”. In series [2], the EC50 is 700 nM and the “beta-2 (IA) maximal response relative to isoproterenol” value is reported as “(0.63)”. Further, in series [3], the EC50 was found to be 20 nM and the “beta-1 (IA) maximal response relative to isoproterenol” value is “(0.74)”.

`CC#CCC(CC#CC)(C(=O)OC(C)(C)C)S(=O)(=O)c1ccc(N2CCC(NC[C@H](O)c3ccc(O)c(NS(C)(=O)=O)c3)CC2)cc1` [Example 47, 2-(2-Butynyl)-2-[(4-{4-[((2R)-2-hydroxy-2-{4-hydroxy-3-[(methylsulfonyl)amino]-phenyl}ethyl)amino]-1-piperidinyl}phenyl)sulfonyl]-4-hexynoicacid tert-Butyl Ester] gave a melting point of 93 to 95 °C. In series [1], the EC50 was determined as 6 nM and the “beta-3 (IA) maximal response relative to isoproterenol” value is listed as “(0.93)”. Also, in series [2], the EC50 was determined as 3200 nM and the “beta-2 (IA) maximal response relative to isoproterenol” value is given as “(0.46)”. In addition, in series [3], the EC50 turned out to be 1000 nM and the “beta-1 (IA) maximal response relative to isoproterenol” value is “(0.47)”.

`CC#CCC(CC#CC)(C(=O)O)S(=O)(=O)c1ccc(N2CCC(NC[C@H](O)c3ccc(O)c(NS(C)(=O)=O)c3)CC2)cc1` [Example 48, 2-(2-Butynyl)-2-[(4-{4-[((2R)-2-hydroxy-2-{4-hydroxy-3-[(methylsulfonyl)amino]phenyl}ethyl)amino]-1-piperidinyl}phenyl)sulfonyl]-4-hexynoicacid] returned a melting point of 175 to 177 °C. Moreover, in series [1], the EC50 turned out to be 590 nM and the “beta-3 (IA) maximal response relative to isoproterenol” value is given as “(1)”. In addition, in series [2], the EC50 stood at 10000 nM and the “beta-2 (IA) maximal response relative to isoproterenol” value is listed as “(0.54)”. For the same compound, in series [3], the EC50 was found to be 10000 nM and the “beta-1 (IA) maximal response relative to isoproterenol” value is “(0.26)”.

With `CS(=O)(=O)Nc1cc([C@@H](O)CNC2CCN(c3ccc(S(=O)(=O)N4CC(=O)NC4=O)cc3)CC2)ccc1O` [Example 50, N-[5-((1R)-2-{1-[4-(2,4-Dioxo-imidazolidine-1-sulfonyl)-phenyl]piperidin-4-ylamino}-1-hydroxy-ethyl)-2-hydroxy-phenyl]-methanesulfonamide], the melting point was in the range of 200 to 202 °C. In addition, in series [1], the 50% effective concentration (EC50) was determined as 10 nM and the “beta-3 (IA) maximal response relative to isoproterenol” value was “(1)”. Also, in series [2], the EC50 turned out to be 7000 nM and the “beta-2 (IA) maximal response relative to isoproterenol” value is “(0.35)”. In addition, in series [3], the EC50 was 2600 nM and the “beta-1 (IA) maximal response relative to isoproterenol” value is on record as “(0.72)”.

The record behind these values is US6444685B1, “N-(4-sulfonylaryl)Cyclylamine 2-hydroxyethylamines as beta-3 adrenergic receptor agonists” (Wyeth, priority 2000, dated 2002).
